Source: article PMC12523804, “Evaluation of molecular mechanisms of (Z)-3-(pentadec-10′-enyl)-catechol (litreol) and synthetic derivatives as inhibitors of human leukotriene biosynthesis” (Redox Biology, 2025)

Key:
[1] = tested on: 5-LO; set-up: method as in PMID 32220788; details: read-out: IC50 against 5-LO; cited from earlier work
[2] = tested on: ROS formation in PMNL; assay: ROS formation in neutrophils (DCF-DA); assay type: cell-based, human; details: 1 and 10 μM, 0.1 μM PMA
Experimental: Neutrophils (10^7 cells/mL in PG buffer) were pre-incubated for 15 min at 37 °C with litreol compounds, diphenyleneiodonium chloride (DPI, used as a positive control for ROS inhibition), or 0.1 % DMSO as vehicle control. Then, 2′,7′-dichlorofluorescence-diacetate (DCF-DA; 1 μg/mL) and CaCl2 (1 mM) were added 2 min prior to addition of 0.1 μM phorbol myristate acetate (PMA, AppliChem, Darmstadt, Germany). The fluorescence emission at 530 nm was measured after excitation at 485 nm in a thermally controlled (37 °C) NOVOstar microplate reader (BMG Labtechnologies GmbH, Offenburg, Germany).

[3] = target: T1, 5-LO (Homo sapiens, UniProt P09917); assay: cell-free 5-LO activity assay with purified human recombinant 5-LO; assay type: biochemical; set-up: made in house; details: for mechanism of 5-LO inhibition versus substrate AA: AA 2.5, 5, 10, 20, 40 and 80 μM; for mechanism of 5-LO inhibition versus substrate AA / AA concentration at which maximal inhibitory potency was reached: isolated 5-LO; for AA concentration at which maximal inhibitory potency was reached: varying AA
T1 sequence (P09917 1-674): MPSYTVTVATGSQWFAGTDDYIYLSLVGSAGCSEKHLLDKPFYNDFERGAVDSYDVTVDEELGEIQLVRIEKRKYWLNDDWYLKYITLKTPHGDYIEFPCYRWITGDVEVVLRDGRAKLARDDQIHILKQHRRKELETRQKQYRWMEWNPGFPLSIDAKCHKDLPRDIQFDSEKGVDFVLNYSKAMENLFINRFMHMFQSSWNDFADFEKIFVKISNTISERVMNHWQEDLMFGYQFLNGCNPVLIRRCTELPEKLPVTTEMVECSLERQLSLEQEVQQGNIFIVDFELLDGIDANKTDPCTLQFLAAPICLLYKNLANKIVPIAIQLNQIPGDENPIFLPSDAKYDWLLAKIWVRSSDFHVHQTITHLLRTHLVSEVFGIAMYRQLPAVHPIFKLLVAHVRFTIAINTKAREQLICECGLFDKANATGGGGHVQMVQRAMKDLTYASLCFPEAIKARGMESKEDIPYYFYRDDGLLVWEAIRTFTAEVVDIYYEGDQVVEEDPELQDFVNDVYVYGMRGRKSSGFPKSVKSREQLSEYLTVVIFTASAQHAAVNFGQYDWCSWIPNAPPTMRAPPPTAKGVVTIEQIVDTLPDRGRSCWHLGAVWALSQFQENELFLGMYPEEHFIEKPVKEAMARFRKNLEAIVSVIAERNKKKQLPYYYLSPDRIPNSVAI
Experimental: 5-LO was expressed in E. coli B121 (DE3) transformed with pT3- 5LO plasmid, and purification of 5-LO was performed as described previously. Briefly, E. coli was lysed in 50 mM tri-ethanolamine/HCl, pH 8.0, 5 mM EDTA, […] soybean trypsin inhibitor, 1 mM phenylmethanesulfonyl fluoride, 1 mM dithiothreitol and 1 mg/mL lysozyme and then sonified (3 × 15 s). The homogenate was then centrifuged at 40,000g for 20 min at 4°C. 5-LO in the supernatant was partially purified by affinity chromatography on an ATP-agarose column (Sigma-Aldrich). Semi-purified 5-LO was diluted in PBS containing EDTA (1 mM) and ATP (1 mM) and immediately used for 5-LO activity assays. Samples were pre-incubated with the test compounds or vehicle (0.1 % DMSO) for 10 min at 4°C. Samples were pre-warmed for 30 s at 37°C, and 2 mM CaCl2 plus the indicated concentrations of AA were added to start 5-LO product formation. The reaction was stopped after 10 min by addition of one volume of ice-cold methanol, and the formed metabolites were analyzed by HPLC. 5- LO products include the all-trans isomers of LTB4 as well as 5-HPETE and its corresponding alcohol 5-HETE.

[4] = tested on: human PMNLs; assay: Lactate dehydrogenase release (LDH assay) in PMNL; assay type: cell-based
Experimental: After treatment of PMNL, supernatants were centrifuged (600g × 5 min, 4 °C), and 100 μL of supernatant were mixed with 200 μL LDH reaction buffer (75 mM Tris/HCl, pH 7.4, 0.3 mM NADH, 1.5 mM Na-pyruvate) in a 96-well plate. The decrease of NADH was measured immediately by absorbance at 340 nm in a kinetic mode (every 7 s for 20 min; Multiskan Spectrum). As a positive control for maximal LDH release, cells treated with 1 % Triton X-100 were included in each experiment, while untreated cells and vehicle (DMSO) served as negative controls.

[5] = target: T2, 5-LO/FLAP (Homo sapiens, UniProt P09917); assay: Subcellular localization of 5-LO and FLAP by immunofluorescence microscopy in HEK293 cells; assay type: cell-based; details: HEK293 cells expressing 5-LO and FLAP, 3 μM (Fig. 4D) or 10 μM (method)
T2 construct: expressed in transfected cells; host or cells: HEK-293, stably transfected
T2 sequence (P09917 1-674): T1 sequence (P09917 1-674)
Experimental: Subcellular localization of 5-LO and FLAP was analyzed by immunofluorescence (IF) microscopy. In brief, HEK-293 cells expressing 5-LO/FLAP were seeded onto acid-washed (50 % sulfuric acid) and poly-L-lysine (0.01 %)-coated glass coverslips and cultured for 48 h at 37 °C until ∼60 % confluency. Cells were pre-incubated with 10 μM of compounds or vehicle (0.1 % DMSO) for 10 min before stimulation with 2.5 μM A23187 for 20 min at 37 °C. After fixation with 4 % paraformaldehyde solution, followed by permeabilization by using 50 mM ammonium chloride and acetone (3 min, 4 °C), cells were incubated with 10 % non-immune goat serum blocking solution for 1 h. Then, cells were incubated over night with mouse monoclonal anti-5-LO antibody (1:100) and rabbit polyclonal anti-FLAP antibody ([…]). The coverslips were intensively washed with PBS before staining with the fluorophore-labeled secondary antibodies Alexa Fluor 488 goat anti-rabbit (1:500) and Alexa Fluor 555 goat anti-mouse (1:500) for 20 min in the dark. The coverslips were mounted on glass slides with Mowiol containing 2.5 % n-propyl gallate and 4,6-diamidin-2-phenylindol (DAPI; Invitrogen, Carlsbad, CA), a staining for nuclear DNA. Samples were analyzed by a Zeiss Axio-vert 200 M microscope, and a Plan Neofluar _ 100/1.30 Oil (DIC III) objective (Carl Zeiss, Jena, Germany). […]

SMILES	IC50 [1]	ROS formation in PMA-stimulated PMNL [2]	IC50 [3]	mechanism of 5-LO inhibition versus substrate AA [3]	AA concentration at which maximal inhibitory potency was reached [3]	cytotoxicity on PMNL (LDH levels in the supernatants) [4]	A23187-induced 5-LO translocation / colocalization with FLAP [5]
CCCC/C=C\CCCCCCCCCc1cccc(O)c1O [CI, (Z)-3-(pentadec-10′-enyl)-catechol]	2090 nM	not affected	60 ± 40 nM	excluding a substrate competitive mechanism	20000 nM	comparable to those of untreated controls	able to block
CCCCCCCCCCCCCCCc1cccc(O)c1O [CS, 3-n-pentadecylcatechol]	2740 nM	not affected	150 nM	not competitive	2500 nM	comparable to those of untreated controls	not successful
